From patent US8236828B2, “Insecticidal compounds” (Syngenta Crop Protection LLC, priority 2007, dated 2012)

Columns and labels:
Type in all cases: in vivo
[1] = tested on: Heliothis virescens (Tobacco Budworm); test: Heliothis virescens egg test on artificial diet; conditions: same protocol, 200 ppm, 4 days
Procedure: (§1) This Example illustrates the pesticidal/insecticidal properties of compounds of formula (I). Tests were performed as follows:
(§2) • Cotton leaf discs were placed on agar in a 24-well microtiter plate and sprayed with test solutions at an application rate of 200 ppm. After drying, the leaf discs were infested with 5 L1 larvae. The samples were checked for mortality, feeding behaviour, and growth regulation 3 days after treatment (DAT). • The following compounds gave at least 80% control of Spodoptera littoralis: A1, A2, A3, A4, A5, A6, A10, A13, A17, A19. Heliothis virescens (Tobacco Budworm): • Eggs (0-24 h old) were placed in 24-well microtiter plate on artificial diet and treated with test solutions at an application rate of 200 ppm (concentration in well 18 ppm) by pipetting. After an incubation period of 4 days, samples were checked for egg mortality, larval mortality, and growth regulation. • The following compounds gave at least 80% control of Heliothis virescens: A1, A2, A3, A4, A5, A6, A7, A9, A10, A11, A12, A14, A17, A18, A19, A21. Plutella xylostella (Diamond Back Moth): • 24-well microtiter plate (MTP) with artificial diet was treated with test solutions at an application rate of 200 ppm (concentration in well 18 ppm) by pipetting. After drying, the MTP's were infested with L2 larvae (7-12 per well). […]

[2] = tested on: Plutella xylostella (Diamond Back Moth); test: Plutella xylostella larvae test on artificial diet; conditions: same protocol, 200 ppm, 6 days
Procedure: as §1, §2

[3] = tested on: Diabrotica balteata (Corn Root Worm); test: Diabrotica balteata larvae test on artificial diet; conditions: same protocol, 200 ppm, 5 days
[4] = tested on: Spodoptera littoralis (Egyptian Cotton Leafworm); test: Spodoptera littoralis cotton leaf disc spray test; conditions: same protocol, 200 ppm, 3 DAT
Procedure: as §1
Spodoptera littoralis (Egyptian Cotton Leafworm):
as §2

Measured: damage to the test organisms

CSc1cc(C(F)(F)F)ccc1C(=O)Nc1cc(C(=O)Nc2c(C)cc(C3(C(F)(F)F)CC(c4ccc(Cl)cc4)=NO3)cc2C)ccc1C#N (centres unmarked) [A8]
little or no damage: all assays above

COC(=O)c1ccc(C(=O)Nc2cc(C(=O)Nc3c(C)cc(C4(C(F)(F)F)CC(c5ccc(Cl)cc5)=NO4)cc3C)ccc2C#N)cc1 (centres unmarked) [A20]
little or no damage: all assays above
